EC50 and DC50 data for 17 compounds are collected here from US20250100996A1, “HETEROCYCLOALKYL AND HETEROARYL COMPOUNDS AND PHARMACEUTICAL COMPOSITIONS THAT MODULATE IKZF2” (Plexium, Inc., priority 2021, published 2025).

The structures appear in SMILES notation.

For test [1], the target named is T1, human E3 ligase component cereblon (CRBN) (Homo sapiens, UniProt Q96SW2).
T1 construct: host or cells: HEK293T
The test can be described thus: Cereblon (CRBN) target engagement, NanoBRET TE Intracellular E3 Ligase Assay in transfected HEK-293T cells. The note with it: read-out: CRBN Binding EC50. How it is done: HEK293T cells were harvested ca. 75% confluent with trypsin and plated (500,000 cells/well) in a 6-well tissue culture plate in 2 mL of Dulbecco's Modified Eagle Medium (DMEM)^+10% Fetal Bovine Serum (FBS) and incubated overnight at 37° C.
The NanoLuc-CRBN fusion vector (Nluc-CRBN; Promega) contains the coding region of human E3 ligase component cereblon (CRBN) fused to the C-terminus of the NanoLuc luciferase coding region. A mixture of 10 ng Nluc-CRBN and 990 ng DDB1 Expression Vector (Promega) was added to 125 μL Opti-Minimum Essential Medium (Opti-MEM™; Thermo Fisher) along with […] P3000 reagent (Thermo Fisher) in a 1.5 mL epppendorf tube. This solution was added to Lipofectamine 3000 transfection reagent (5 μL; Thermo Fisher) in Opti-MEM (125 μL), mixed well, and incubated for 15 minutes at room temperature. The transfection mixture was added dropwise to cells and incubated overnight at 37° C., 5% CO2. Following transfection, cells were washed once with PBS, and trypsin (250 μL) was added and incubated 30-45 see to dislodge cells. Complete media (2 mL) was added to resuspend cells to form a single cell suspension. Cells were centrifuged at 320×g for 5 min at room temperature, the supernatant was removed, and the cell pellet resuspended in Opti-MEM (3 mL; wash step repeated ×2). After final resuspension in 5 mL Opti-MEM, cells were counted and resuspended at 200,000 cells/mL in Opti-MEM.
Cereblon target engagement was monitored by Bioluminescence Resonance Energy Transfer (BRET) in transfected HEK-293T cells using the NanoBRET TE Intracellular E3 Ligase Assay (Promega). Briefly, 384-well plates (white opaque plates, Corning 3574, low binding surface) were seeded with transfected HEK-293T cells (38 μL/well). 2 μL of 10 μM CRBN tracer (diluted 1:5 in Tracer Dilution Buffer) was added to each well. Plates were centrifuged at 320×g for 1 min at room temperature. Test compounds were added in a 11-point dilution series (typically 10 μM to 100 pM) using a TECAN D300e Digital Dispenser. Plates were shaken for 2 minutes on a microplate shaker to mix compounds. Plates were centrifuged at 320×g for 1 min at room temperature, and subsequently incubated for 2 hours at 37° C.
After incubation, plates were allowed to cool to room temperature for 15 minutes. 20 μL of 3× Complete NanoBRET™ Nano-Glo® Substrate plus Inhibitor Solution (Promega, 1:166 Substrate and 1:500 dilution of Extracellular NanoLuc® Inhibitor diluted in Opti-MEM) were added to each well. Plates were incubated with shaking at room temperature for 3 minutes covered with foil. Plates were read on a CLARIOstar microplate reader (BMG LabTech), measuring at 450 nm (donor emission) and 610 nm (acceptor emission). The IC50 values were determined by regression to best fit four-parameter logistic curves using GraphPad Prism.
On the technique in general: In BRET a luciferase serves as donor, and the signal depends on an acceptor being close.

The next test deals with T2, IKZF2 (Helios) (Homo sapiens, UniProt Q9UKS7).
T2 construct: Leu-Asp junction (codons ctcgac before the linker); mScarlet (behind P2A) (C, cleaved yes); expressed in transfected cells
As to the kind of experiment: IKZF2 reporter degradation assay (HEK 293T IKZF2-mNeonGreen reporter cell line). Format: cell-based. The settings on record: HEK 293T IKZF2-mNeonGreen reporter, 24 hours incubation. The text has this: (§1) Polycistronic plasmids were constructed for the mammalian expression of fluorescent reporter fusions of human transcription factors IKZF1 (Ikaros), IKZF2 (Helios), and IKZF3 (Aiolos). The respective protein sequences had their C-terminal end joined to a GGGGS linker repeated three times followed by mNeonGreen, P2A sequence, and mScarlet. The DNA sequences of the open reading frames are as follows:
(§2) IKZF1, IKZF2, and IKZF3 constructs were cloned into the UCOE Hygromycin expression vectors (Millipore Sigma). Reporter constructs were transfected using cationic lipid reagents into adherent HEK 293T cells and stable integrants were selected by treatment with 200 μg/mL hygromycin B. Clonal populations were obtained from the population of stable integrants either by limiting dilution or fluorescence activated cell sorting.
(§3) The clonal stable cell lines were maintained under constant 200 μg/mL hygromycin B selection while being passaged for use in the degradation assays. […] The fluorescence intensity of the IKZF1/2/3-mNeonGreen (FITC channel) and mScarlet (PE channel) reporters were routinely analyzed by flow cytometry to confirm consistent expression levels between experiments.
(§4) The IKZF1/IKZF2/IKZF3 degradation assays were carried out by harvesting the HEK 293T reporter cell lines and resuspending the cells in media formulated for reduced background fluorescence (FluoroBrite; Thermo Fisher). The respective cell lines were seeded at a density of 4000 cells/well into black-walled 384-well optical grade assay tissue culture plates. The cells were incubated overnight at 37° C. to allow for attachment to the assay plate. Dilutions of the compounds were prepared in DMSO from 10 mM compound stocks. The assay plates were treated with appropriate concentrations of the compounds by dispensing the DMSO dilutions in quadruplicate wells with an upper limit of 0.5% final DMSO.
(§5) After 24 hours incubation with the compounds, the assay plates were imaged on an ImageXpress Pico microscopy system (cells maintained at 37° C. during imaging) to obtain the fluorescent readouts. The assay plates were imaged in the FITC and Tetramethylrhodamine (TRITC) channels to obtain the mNeonGreen fluorescence intensity (reporter degradation data) and mScarlet fluorescence intensity (for cell segmentation). 293T-IKZF1 and 293T-IKZF3 reporter cell lines were imaged with exposures of 500 milliseconds (ms) for both FITC and TRITC channels, while the 293T-IKZF2 reporter cell line was imaged with exposures of 1000 ms for FITC and 1250 ms for TRITC. The resulting data was analyzed with Cell Reporter Xpress software using the 2-channel cell scoring analysis with a “percent positive” readout. The TRITC channel was selected for the “nuclei” segmentation with a threshold of 20 while the FITC channel was selected for the “Marker 1” segmentation and a threshold of 100 for the IKZF1 and IKZF3 reporter lines. […] The minimum segmentation width was set to 6 micrometers and the maximum segmentation width was set to 15 micrometers for all cell lines. The DC50 calculations were determined by regression to best fit four-parameter logistic curves using GraphPad Prism.

For the next test, the target named is T3, IKZF3 (Aiolos) (Homo sapiens, UniProt Q9UKT9).
T3 construct: Leu-Asp junction (codons ctcgac before the linker); mScarlet (behind P2A) (C, cleaved yes); expressed in transfected cells
As to the kind of experiment: IKZF3 reporter degradation assay (HEK 293T IKZF3-mNeonGreen reporter cell line). The test is classed as cell-based. The note with it: HEK 293T IKZF3-mNeonGreen reporter, 24 hours incubation.
Text: as §1, §2, §3, §4, §5

What is called EC50 is the concentration needed to bring the measured effect to its halfway point. As a reminder, the DC50 is the concentration at which degradation of the target reaches its halfway point. Lower therefore signals degradation at low concentration.

T2 sequence (Q9UKS7 whole entry): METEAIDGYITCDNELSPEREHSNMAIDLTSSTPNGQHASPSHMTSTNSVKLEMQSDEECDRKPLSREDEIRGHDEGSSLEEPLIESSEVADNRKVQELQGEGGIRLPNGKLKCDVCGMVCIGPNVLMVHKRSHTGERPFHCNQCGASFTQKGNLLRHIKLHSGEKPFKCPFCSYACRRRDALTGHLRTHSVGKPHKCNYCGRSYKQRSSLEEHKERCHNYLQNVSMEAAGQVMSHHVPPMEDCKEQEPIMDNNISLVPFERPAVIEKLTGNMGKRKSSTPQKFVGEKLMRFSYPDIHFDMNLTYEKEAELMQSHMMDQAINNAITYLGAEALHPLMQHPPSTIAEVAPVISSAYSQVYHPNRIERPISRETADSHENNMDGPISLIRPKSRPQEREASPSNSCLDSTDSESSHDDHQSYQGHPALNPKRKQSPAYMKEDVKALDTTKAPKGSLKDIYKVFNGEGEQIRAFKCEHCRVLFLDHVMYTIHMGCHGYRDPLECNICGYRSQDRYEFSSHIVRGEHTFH
T2 sequence (Q96SW2 whole entry, further chain): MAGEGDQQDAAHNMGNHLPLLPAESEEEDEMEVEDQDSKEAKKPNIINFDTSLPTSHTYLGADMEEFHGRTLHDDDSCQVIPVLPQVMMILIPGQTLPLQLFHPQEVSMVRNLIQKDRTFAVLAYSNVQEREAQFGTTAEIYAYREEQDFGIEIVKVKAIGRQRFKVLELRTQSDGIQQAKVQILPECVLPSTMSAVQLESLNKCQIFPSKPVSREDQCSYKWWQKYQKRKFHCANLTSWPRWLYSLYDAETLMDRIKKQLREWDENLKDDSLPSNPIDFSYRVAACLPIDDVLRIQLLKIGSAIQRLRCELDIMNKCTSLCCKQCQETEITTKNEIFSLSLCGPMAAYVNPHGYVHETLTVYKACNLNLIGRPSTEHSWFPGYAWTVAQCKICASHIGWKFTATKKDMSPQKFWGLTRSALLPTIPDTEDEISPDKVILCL
T2 sequence (Q16531 whole entry partner): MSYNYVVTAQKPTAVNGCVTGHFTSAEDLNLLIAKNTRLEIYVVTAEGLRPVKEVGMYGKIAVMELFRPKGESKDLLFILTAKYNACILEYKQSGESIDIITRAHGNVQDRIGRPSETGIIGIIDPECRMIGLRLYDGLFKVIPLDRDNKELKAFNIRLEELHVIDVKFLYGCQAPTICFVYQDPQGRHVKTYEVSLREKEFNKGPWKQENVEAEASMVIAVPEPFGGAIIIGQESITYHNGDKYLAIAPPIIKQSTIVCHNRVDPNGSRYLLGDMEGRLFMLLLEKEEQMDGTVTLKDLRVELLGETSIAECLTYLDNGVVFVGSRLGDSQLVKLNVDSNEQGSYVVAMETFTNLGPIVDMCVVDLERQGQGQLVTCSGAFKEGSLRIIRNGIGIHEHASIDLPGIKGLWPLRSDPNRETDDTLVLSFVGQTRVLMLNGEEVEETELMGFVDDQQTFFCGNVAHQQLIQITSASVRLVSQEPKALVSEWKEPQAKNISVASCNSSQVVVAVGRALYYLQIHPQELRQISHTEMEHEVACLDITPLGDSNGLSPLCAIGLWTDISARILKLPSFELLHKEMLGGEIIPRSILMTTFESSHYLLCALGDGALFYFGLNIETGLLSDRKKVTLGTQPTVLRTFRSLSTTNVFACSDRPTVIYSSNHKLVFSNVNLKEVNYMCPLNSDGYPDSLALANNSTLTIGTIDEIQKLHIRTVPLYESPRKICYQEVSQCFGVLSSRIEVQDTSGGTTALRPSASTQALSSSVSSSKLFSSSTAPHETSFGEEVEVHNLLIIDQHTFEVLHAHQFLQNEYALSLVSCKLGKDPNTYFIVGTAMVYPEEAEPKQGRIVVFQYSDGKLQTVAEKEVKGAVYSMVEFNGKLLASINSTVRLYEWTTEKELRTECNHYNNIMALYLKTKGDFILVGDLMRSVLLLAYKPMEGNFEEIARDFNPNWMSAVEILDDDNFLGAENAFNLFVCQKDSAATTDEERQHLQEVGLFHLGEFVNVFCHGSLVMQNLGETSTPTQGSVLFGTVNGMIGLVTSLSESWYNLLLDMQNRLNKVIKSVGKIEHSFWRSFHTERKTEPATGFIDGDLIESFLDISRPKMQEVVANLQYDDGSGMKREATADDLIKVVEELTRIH
T3 sequence (Q96SW2 whole entry partner): as the sequence (Q96SW2 whole entry, further chain) above
T3 sequence (Q16531 whole entry partner): as the sequence (Q16531 whole entry partner) above
T3 sequence (Q9UKT9 whole entry): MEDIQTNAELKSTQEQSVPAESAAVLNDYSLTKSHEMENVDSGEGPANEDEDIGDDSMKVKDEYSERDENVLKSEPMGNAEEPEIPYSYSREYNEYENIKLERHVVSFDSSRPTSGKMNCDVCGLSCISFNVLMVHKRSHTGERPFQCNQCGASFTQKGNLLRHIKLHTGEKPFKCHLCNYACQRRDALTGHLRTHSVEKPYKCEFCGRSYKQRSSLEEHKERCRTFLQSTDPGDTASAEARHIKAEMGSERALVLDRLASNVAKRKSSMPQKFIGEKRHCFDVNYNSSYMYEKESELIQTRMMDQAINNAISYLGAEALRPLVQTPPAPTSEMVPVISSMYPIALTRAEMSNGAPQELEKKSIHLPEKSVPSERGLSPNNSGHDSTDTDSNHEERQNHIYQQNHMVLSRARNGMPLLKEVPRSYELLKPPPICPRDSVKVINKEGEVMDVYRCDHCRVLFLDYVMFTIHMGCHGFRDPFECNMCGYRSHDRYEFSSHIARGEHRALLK
T1 sequence (Q96SW2 whole entry): as the sequence (Q96SW2 whole entry, further chain) above
T1 sequence (Q16531 whole entry partner): as the sequence (Q16531 whole entry partner) above

Consider `O=C1CCC(N2Cc3cc(OC4CCCC4N4CC(c5ccc(C(F)(F)F)nc5)C4)ccc3C2=O)C(=O)N1` (centres unmarked) [Compound 141-B, 3-(1-oxo-5-((2-(3-(6-(trifluoromethyl)pyridin-3-yl)azetidin-1-yl)cyclopentyl)oxy)isoindolin-2-yl)piperidine-2,6-dione], for which the EC50 in test [1] worked out at 0.037 µM. In addition, the DC50 at IKZF2 (Helios) and at IKZF3 (Aiolos) was more than 30 µM throughout.
Turning to `O=C1CCC(N2Cc3cc(OC4CCCC4N4CC(c5cncc(C(F)(F)F)c5)C4)ccc3C2=O)C(=O)N1` (centres unmarked) [Compound 154-B, 3-(1-oxo-5-((2-(3-(5-(trifluoromethyl)pyridin-3-yl)azetidin-1-yl)cyclopentyl)oxy)isoindolin-2-yl)piperidine-2,6-dione], the EC50 in test [1] was 0.056 µM. In addition, the DC50 on IKZF2 (Helios) and on IKZF3 (Aiolos) was more than 30 µM throughout.
For `O=C1CCC(N2Cc3cc(O[C@H]4CCCC[C@@H]4N4CC(c5ncncc5Cl)C4)ccc3C2=O)C(=O)N1` (mixture of isomers) [Compound 140-B, Rac-3-(5-(((trans)-2-(3-(5-chloropyrimidin-4-yl)azetidin-1-yl)cyclohexyl)oxy)-1-oxoisoindolin-2-yl)piperidine-2,6-dione], in test [1], the EC50 is 0.034 µM. Further, the DC50 on IKZF2 (Helios) and on IKZF3 (Aiolos) was more than 30 µM in each case.
Regarding `O=C1CCC(N2Cc3cc(O[C@@H]4CCCC[C@@H]4N4CC(c5ncc(Br)cn5)C4)ccc3C2=O)C(=O)N1` (mixture of isomers) [Compound 138-B, Rac-3-(5-(((cis)-2-(3-(5-bromopyrimidin-2-yl)azetidin-1-yl)cyclohexyl)oxy)-1-oxoisoindolin-2-yl)piperidine-2,6-dione], the EC50 in test [1] was found to be 0.005 µM. The DC50 at IKZF2 (Helios) and on IKZF3 (Aiolos) was more than 30 µM in each case.
With `O=C1CCC(N2Cc3cc(O[C@H]4CCCC[C@H]4N4CC(c5ccc(Cl)cn5)C4)ccc3C2=O)C(=O)N1` (mixture of isomers) [Compound 164-B, Rac-3-(5-(((cis)-2-(3-(5-chloropyridin-2-yl)azetidin-1-yl)cyclohexyl)oxy)-1-oxoisoindolin-2-yl)piperidine-2,6-dione], the EC50 in test [1] stood at 0.015 µM. The DC50 at IKZF2 (Helios) and on IKZF3 (Aiolos) was more than 30 µM in each case.
Regarding `O=C1CCC(N2Cc3cc(O[C@@H]4CCCC[C@H]4N4CC(c5ccc(C(F)(F)F)nc5)C4)ccc3C2=O)C(=O)N1` (single isomer, unassigned) [Compound 124-B], the EC50 in test [1] is 0.029 µM. Moreover, the DC50 at IKZF2 (Helios) and on IKZF3 (Aiolos) was more than 30 µM throughout.
In the case of `O=C1CCC(N2Cc3cc(O[C@@H]4CCCC[C@H]4N4CC(c5ncc(Br)cn5)C4)ccc3C2=O)C(=O)N1` (single isomer, unassigned) [Compound 106-B], the EC50 in test [1] stood at 0.006 µM. Also, the DC50 on IKZF2 (Helios) is more than 30 µM.
The like results for `O=C1CCC(N2Cc3cc(O[C@@H]4CCCC[C@H]4N4CC(c5ncc(Cl)cn5)C4)ccc3C2=O)C(=O)N1` (single isomer, unassigned) [Compound 109-B] were, in that order, 0.009 µM and more than 30 µM.
`O=C1CCC(N2Cc3cc(O[C@@H]4CCCC[C@@H]4N4CC(c5ccncc5F)C4)ccc3C2=O)C(=O)N1` (single isomer, unassigned) [Compound 104-B]: the EC50 in test [1] was 0.038 µM. The DC50 on IKZF2 (Helios) was more than 30 µM.
Take `N#Cc1cc(C2CN([C@H]3CCCC[C@@H]3Oc3ccc4c(c3)CN(C3CCC(=O)NC3=O)C4=O)C2)ccn1` (mixture of isomers) [Compound 180-B, Rac-4-(1-((trans)-2-((2-(2,6-dioxopiperidin-3-yl)-1-oxoisoindolin-5-yl)oxy)cyclohexyl)azetidin-3-yl)picolinonitrile]: the EC50 in test [1] amounted to 0.041 µM. Besides, the DC50 on IKZF2 (Helios) and at IKZF3 (Aiolos) was more than 30 µM in each case.
Consider `O=C1CCC(N2Cc3cc(O[C@H]4CCCC[C@H]4N4CC(c5cncc(Cl)c5)C4)ccc3C2=O)C(=O)N1` (single isomer, unassigned) [Compound 114-B], for which the EC50 in test [1] was 0.02 µM. The compound further yielded a DC50 on IKZF2 (Helios) of more than 30 µM.
For the compound `O=C1CCC(N2Cc3cc(O[C@H]4CCCC[C@@H]4N4CC(c5ncc(Cl)cn5)C4)ccc3C2=O)C(=O)N1` (single isomer, unassigned) [Compound 110-B], the EC50 in test [1] was determined as 0.032 µM. This compound also gave a DC50 at IKZF2 (Helios) of more than 30 µM.
Consider `O=C1CCC(N2Cc3cc(O[C@@H]4CCCC[C@@H]4N4CC(c5ncncc5Cl)C4)ccc3C2=O)C(=O)N1` (single isomer, unassigned) [Compound 94-B], for which, in test [1], the EC50 was determined as 0.029 µM. Moreover, the DC50 on IKZF2 (Helios) is more than 30 µM.
Regarding `O=C1NC(=O)C2(N3Cc4cc(OC5CCCC5N5CC(c6ccncc6)C5)ccc4C3=O)CC1C2` (centres unmarked) [Compound 148-B, 1-(1-oxo-5-((2-(3-(pyridin-4-yl)azetidin-1-yl)cyclopentyl)oxy)isoindolin-2-yl)-3-azabicyclo[3.1.1]heptane-2,4-dione], in test [1], the EC50 was more than 10 µM. In addition, the DC50 at IKZF2 (Helios) and on IKZF3 (Aiolos) was more than 30 µM throughout.
As for `O=C1CCC(N2Cc3cc(OC4CCCCC4N4CC(c5cncc(C(F)(F)F)c5)C4)ccc3C2=O)C(=O)N1` (centres unmarked) [Compound 178-B, 3-(1-oxo-5-((2-(3-(5-(trifluoromethyl)pyridin-3-yl)azetidin-1-yl)cyclohexyl)oxy)isoindolin-2-yl)piperidine-2,6-dione], the EC50 in test [1] was determined as 0.039 µM. Further, the DC50 at IKZF2 (Helios) and on IKZF3 (Aiolos) was more than 30 µM throughout.
As to `O=C1CCC(N2Cc3cc(O[C@@H]4CCCC[C@@H]4N4CC(c5ccc(Cl)cn5)C4)ccc3C2=O)C(=O)N1` (single isomer, unassigned) [Compound 101-B], the EC50 in test [1] amounted to 0.011 µM. For the same compound, at IKZF2 (Helios), the DC50 was more than 30 µM.
Consider `O=C1CCC(N2Cc3cc(O[C@H]4CCCC[C@H]4N4CC(c5ccc6ccccc6n5)C4)ccc3C2=O)C(=O)N1` (stereo partly drawn) [Compound 88-B, 3-(1-oxo-5-(((1S,2R)-2-(3-(quinolin-2-yl)azetidin-1-yl)cyclohexyl)oxy)isoindolin-2-yl)piperidine-2,6-dione], for which the EC50 in test [1] amounted to 0.01 µM. In addition, the DC50 at IKZF2 (Helios) and at IKZF3 (Aiolos) was more than 30 µM each time.
